This note sets out measurements from publication PMC9137614, “TXH11106: A Third-Generation MreB Inhibitor with Enhanced Activity against a Broad Range of Gram-Negative Bacterial Pathogens” (Antibiotics, 2022).

Read-outs that look alike come from different tables or passages of the source.

For this assay, the target named is T1, MreB (EcMreB) (Escherichia coli, UniProt P0A9X4).
T1 construct: N-terminal 8× His-tagged E. coli MreB (mreB from ATCC 25922), wild-type
The assay is described as follows: malachite green ATPase assay with purified EcMreB; Eadie–Hofstee kinetics. It is filed as biochemical.

T1 sequence (P0A9X4 whole entry): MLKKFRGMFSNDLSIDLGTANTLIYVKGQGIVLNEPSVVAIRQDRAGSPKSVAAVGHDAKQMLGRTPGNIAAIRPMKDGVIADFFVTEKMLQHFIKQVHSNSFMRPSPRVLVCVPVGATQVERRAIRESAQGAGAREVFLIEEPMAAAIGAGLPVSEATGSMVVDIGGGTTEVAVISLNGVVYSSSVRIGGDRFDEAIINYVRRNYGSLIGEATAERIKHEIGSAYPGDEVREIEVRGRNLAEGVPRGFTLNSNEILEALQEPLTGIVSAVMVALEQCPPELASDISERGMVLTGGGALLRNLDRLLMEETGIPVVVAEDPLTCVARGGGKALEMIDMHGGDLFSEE

Take `NC1CCCc2c1[nH]c1ccc(Br)cc21` (stereo not drawn) [CBR-4830]: the half-maximal inhibitory concentration (IC50) (usually the point on the concentration scale where inhibition reaches its midpoint) (read-out: IC50) is 49 ± 8 µM.

`N=C(N)SCc1ccc(Cl)c(Cl)c1` [A22] returned an IC50 of 447 ± 87 µM.

In the case of `NC1CCCc2c1[nH]c1ccc(Cl)c(Cl)c21` (stereo not drawn) [compound 4, 5,6-dichloro-2,3,4,9-tetrahydro-1H-carbazol-1-amine], under “read-out: IC50”, the IC50 was 14 ± 2 µM.
